Four compounds from PubChem BioAssay AID180 (DTP/NCI, 2004) can be followed below.

SMILES strings stand for the structures. Values joined by “and” are separate entries in the source; they are usually repeats but may differ in a detail not shown here. Identical values can stand only once.

This assay relates to BDF1 mice, Adenocarcinoma 755 s.c., tumor weight T/C. Kind of assay: NCI In Vivo Anticancer Drug Screen. Data for tumor model Adenocarcinoma 755 (subcutaneous) in B6D2F1 (BDF1) mice. As to conditions: endpoint: mean tumor weight, higher = larger tumour. The method, boiled down: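 Transplantable tumor implanted; mice dosed with compound or vehicle; survival or tumor size recorded; ratio of treated to vehicle control reported.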

Setting [1] is: dose: 50.0 mg/kg/injection, schedule: Q01DX011 (ip), vehicle: carboxymethylcellulose (CMC).

The T/C is the result in the treated group divided by that in the control group, in per cent. As for `Nc1c(Br)cc2c(c1Br)Cc1cc(Br)ccc1-2`, the T/C (dose: 3.75 mg/kg/injection, schedule: Q#A X022 (ip), vehicle: saline) is 77 % of control; the T/C (dose: 7.5 mg/kg/injection, schedule: Q#A X022 (ip), vehicle: saline) is 50 % of control; the T/C (dose: 15.0 mg/kg/injection, schedule: Q01DX011 (im), vehicle: saline) is 46 % of control; the T/C (dose: 15.0 mg/kg/injection, schedule: Q01DX011 (sc), vehicle: saline) is 58 % of control; the T/C (dose: 15.0 mg/kg/injection, schedule: Q#A X022 (ip), vehicle: saline) was 40 % of control; the T/C (dose: 15.5 mg/kg/injection, schedule: Q01DX011 (ip), vehicle: saline) is 74 % of control. Moreover, the T/C reads like this: (dose: 21.8 mg/kg/injection, schedule: Q01DX011 (ip), vehicle: saline) 59 % of control and 69 % of control; (dose: 30.0 mg/kg/injection, schedule: Q01DX011 (im), vehicle: saline) 48 % of control; (dose: 30.0 mg/kg/injection, schedule: Q01DX011 (sc), vehicle: saline) 52 % of control; (dose: 30.0 mg/kg/injection, schedule: Q#A X022 (ip), vehicle: saline) 40 % of control; (dose: 31.2 mg/kg/injection, schedule: Q01DX011 (ip), vehicle: saline) 75 % of control; (dose: 43.7 mg/kg/injection, schedule: Q01DX011 (ip), vehicle: saline) 18 % of control and 36 % of control. Further, the T/C (dose: 45.0 mg/kg/injection, schedule: Q03DX004 (ip), vehicle: saline) was 67 % of control; the T/C (dose: 60.0 mg/kg/injection, schedule: Q01DX011 (im), vehicle: saline) is 40 % of control; the T/C (dose: 60.0 mg/kg/injection, schedule: Q01DX011 (ip), vehicle: saline) was 24 % of control; the T/C (dose: 60.0 mg/kg/injection, schedule: Q01DX011 (sc), vehicle: saline) is 41 % of control; the T/C (dose: 60.0 mg/kg/injection, schedule: Q#A X022 (ip), vehicle: saline) is 28 % of control; the T/C (dose: 62.5 mg/kg/injection, schedule: Q01DX011 (ip), vehicle: saline) is 63 % of control. Also, the T/C (dose: 87.5 mg/kg/injection, schedule: Q01DX011 (ip), vehicle: saline) is 33 % of control and 35 % of control; the T/C (dose: 90.0 mg/kg/injection, schedule: Q03DX004 (ip), vehicle: saline) is 66 % of control; the T/C (dose: 100.0 mg/kg/injection, schedule: Q01DX001 (ip), vehicle: saline) was 80 % of control and 87 % of control; the T/C (dose: 100.0 mg/kg/injection, schedule: Q07DX002 (ip), vehicle: saline) was 78 % of control; the T/C (dose: 120.0 mg/kg/injection, schedule: Q01DX001 (ip), vehicle: saline) is 56 % of control; the T/C (dose: 120.0 mg/kg/injection, schedule: Q01DX011 (im), vehicle: saline) is 45 % of control. In addition, the T/C by setting is: (dose: 120.0 mg/kg/injection, schedule: Q01DX011 (ip), vehicle: saline) 17 % of control; (dose: 120.0 mg/kg/injection, schedule: Q01DX011 (oral), vehicle: saline) 26 % of control; (dose: 120.0 mg/kg/injection, schedule: Q01DX011 (sc), vehicle: saline) 46 % of control; (dose: 120.0 mg/kg/injection, schedule: Q#A X022 (ip), vehicle: saline) 34 % of control; (dose: 125.0 mg/kg/injection, schedule: Q01DX011 (ip), vehicle: saline) 36 % of control; (dose: 125.0 mg/kg/injection, schedule: Q01DX011 (oral), vehicle: saline) 74 % of control. Besides, the T/C was 33 % of control (dose: 175.0 mg/kg/injection, schedule: Q01DX011 (ip), vehicle: other); 27 % of control and 33 % of control (dose: 175.0 mg/kg/injection, schedule: Q01DX011 (ip), vehicle: saline); 58 % of control (dose: 180.0 mg/kg/injection, schedule: Q03DX004 (ip), vehicle: saline); 74 % of control and 75 % of control (dose: 200.0 mg/kg/injection, schedule: Q01DX001 (ip), vehicle: saline); 71 % of control (dose: 200.0 mg/kg/injection, schedule: Q07DX002 (ip), vehicle: saline); 44 % of control (dose: 240.0 mg/kg/injection, schedule: Q01DX001 (ip), vehicle: saline). Further, the T/C reads like this: (dose: 240.0 mg/kg/injection, schedule: Q01DX011 (ip), vehicle: saline) 16 % of control; (dose: 240.0 mg/kg/injection, schedule: Q01DX011 (oral), vehicle: saline) 23 % of control; (dose: 250.0 mg/kg/injection, schedule: Q01DX011 (ip), vehicle: saline) 52 % of control; (dose: 250.0 mg/kg/injection, schedule: Q01DX011 (oral), vehicle: saline) 64 % of control; (dose: 350.0 mg/kg/injection, schedule: Q01DX011 (ip), vehicle: other) 16 % of control; (dose: 360.0 mg/kg/injection, schedule: Q03DX004 (ip), vehicle: saline) 54 % of control. The T/C (dose: 400.0 mg/kg/injection, schedule: Q01DX001 (ip), vehicle: saline) was 54 % of control and 65 % of control; the T/C (dose: 400.0 mg/kg/injection, schedule: Q07DX002 (ip), vehicle: saline) was 51 % of control; the T/C (dose: 480.0 mg/kg/injection, schedule: Q01DX001 (ip), vehicle: saline) is 26 % of control; the T/C (dose: 480.0 mg/kg/injection, schedule: Q01DX011 (im), vehicle: saline) is 33 % of control; the T/C (dose: 480.0 mg/kg/injection, schedule: Q01DX011 (ip), vehicle: saline) was 16 % of control; the T/C (dose: 480.0 mg/kg/injection, schedule: Q01DX011 (oral), vehicle: saline) was 24 % of control. In addition, the T/C by setting is: (dose: 480.0 mg/kg/injection, schedule: Q01DX011 (sc), vehicle: saline) 30 % of control; (dose: 500.0 mg/kg/injection, schedule: Q01DX011 (ip), vehicle: saline) 58 % of control; (dose: 500.0 mg/kg/injection, schedule: Q01DX011 (oral), vehicle: saline) 57 % of control; (dose: 700.0 mg/kg/injection, schedule: Q01DX011 (ip), vehicle: other) 34 % of control; (dose: 720.0 mg/kg/injection, schedule: Q03DX004 (ip), vehicle: saline) 24 % of control; (dose: 800.0 mg/kg/injection, schedule: Q01DX001 (ip), vehicle: saline) 60 % of control and 80 % of control. Also, the T/C was 51 % of control (dose: 800.0 mg/kg/injection, schedule: Q07DX002 (ip), vehicle: saline); 31 % of control (dose: 960.0 mg/kg/injection, schedule: Q01DX001 (ip), vehicle: saline); 29 % of control (dose: 960.0 mg/kg/injection, schedule: Q01DX011 (im), vehicle: saline); 25 % of control (dose: 960.0 mg/kg/injection, schedule: Q01DX011 (oral), vehicle: saline); 25 % of control (dose: 960.0 mg/kg/injection, schedule: Q01DX011 (sc), vehicle: saline); 47 % of control (dose: 1000.0 mg/kg/injection, schedule: Q01DX011 (ip), vehicle: saline). Besides, the T/C runs as follows: (dose: 1000.0 mg/kg/injection, schedule: Q01DX011 (oral), vehicle: saline) 43 % of control; (dose: 1440.0 mg/kg/injection, schedule: Q03DX004 (ip), vehicle: saline) 29 % of control; (dose: 2000.0 mg/kg/injection, schedule: Q01DX011 (ip), vehicle: saline) 40 % of control; (dose: 2000.0 mg/kg/injection, schedule: Q01DX011 (oral), vehicle: saline) 36 % of control; (dose: 3000.0 mg/kg/injection, schedule: Q01DX011 (oral), vehicle: saline) 56 % of control.

`O=C([O][Hg][CH2]C1CC(O)CC([CH2][Hg][O]C(=O)c2ccccc2)O1)c1ccccc1` (stereo unspecified): the T/C by setting is: (dose: 25.0 mg/kg/injection, schedule: Q01DX011 (ip), vehicle: carboxymethylcellulose (CMC)) 83 % of control; under setting [1], 33 % of control.

Turning to `N/C(=N\O)c1nsnc1N`, the T/C by setting is: under setting [1], 85 % of control; (dose: 100.0 mg/kg/injection, schedule: Q01DX011 (ip), vehicle: carboxymethylcellulose (CMC)) 71 % of control.

As for `O=C1C=Cc2ccc(O)cc2C1=O`, the T/C reads like this: (dose: 2.0 mg/kg/injection, schedule: Q01DX011 (ip), vehicle: saline) 103 % of control; (dose: 8.0 mg/kg/injection, schedule: Q01DX011 (ip), vehicle: saline) 50 % of control.
